Measured values: US20260184687A1, “DIHYDROINDENE DERIVATIVES AS MALT1 INHIBITORS” (C4X Discovery Limited, priority 2022, published 2026)

Columns and labels:
[1] = tested on: IL-2 release from stimulated Jurkat cells; assay: Human IL-2 Release Phenotypic Assay (Assay 3); format: cell-based; conditions: Jurkat cells (clone E6-1), 200 ng/mL PMA + 300 ng/mL ionomycin, IL-2 by ELISA
Summary of the method: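 Jurkat E6-1 cells in RPMI1640/10% FBS were seeded at 50 000 cells/well and incubated overnight at 37° C. Half-log compound dilutions (0.5% final DMSO) were added for 30 min, then cells were stimulated with 200 ng/mL PMA + 300 ng/mL ionomycin for 48 h. IC50 came from a 4-parameter non-linear regression fit.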

[2] = molecular target: MALT1-GS-Ub (6-His-hMALT-1 residues 339-715 fused to ubiquitin) (Homo sapiens, UniProt Q9UDY8); assay: biochemical;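 further: in vitro MALT1 protease assay: enzyme preincubated with compound 30 min at room temperature, then cleavage of fluorogenic Ac-LVSR-AMC substrate (100 µM) followed by fluorescence every 15 min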
Description: MALT1 protease activity was assessed in vitro by measuring the cleavage of a fluorogenic tetrapeptide substrate.
A protein (MALT1-GS-Ub) comprising 6-His-hMALT-1 (residues 339-715), fused to ubiquitin with an 8×GGS linker, was expressed in E. coli, and purified using chitin resin to remove contaminants followed by affinity chromatography purification and size-exclusion chromatography, according to standard protocols.
Briefly, MALT1-GS-Ub (300-600 nM) was incubated with substrate (Ac-LVSR-AMC, 100 μM) in reaction buffer comprising 50 mM HEPES (pH7.0), 25 mM KCl, 0.1% (v/v) CHAPS and 1 mM TCEP.
Test compounds dissolved in DMSO were dispensed into assay plates (384-well, black, shallow ProxiPlates). 7 μl enzyme solution was added and incubated at room temperature for 30 minutes to allow compound binding to occur. 2 μl substrate solution was then added and the fluorescence (excitation 360 nm, emission 460 nm) read every 15 minutes using a suitable plate reader. Final assay DMSO concentration was 1%. […] IC50 values were calculated using GraphPad Prism using a 4-parameter non-linear regression curve fit.

[3] = molecular target: T1, FL hMALT1 enzyme (Homo sapiens, UniProt Q9UDY8); assay: biochemical;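 further: Cell-free protease assay: enzyme preincubated with compound 30 min at room temperature, then cleavage of fluorogenic Ac-LVSR-AMC substrate (100 µM) tracked by fluorescence (ex 360/em 460 nm)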
T1 sequence (Q9UDY8 1-824): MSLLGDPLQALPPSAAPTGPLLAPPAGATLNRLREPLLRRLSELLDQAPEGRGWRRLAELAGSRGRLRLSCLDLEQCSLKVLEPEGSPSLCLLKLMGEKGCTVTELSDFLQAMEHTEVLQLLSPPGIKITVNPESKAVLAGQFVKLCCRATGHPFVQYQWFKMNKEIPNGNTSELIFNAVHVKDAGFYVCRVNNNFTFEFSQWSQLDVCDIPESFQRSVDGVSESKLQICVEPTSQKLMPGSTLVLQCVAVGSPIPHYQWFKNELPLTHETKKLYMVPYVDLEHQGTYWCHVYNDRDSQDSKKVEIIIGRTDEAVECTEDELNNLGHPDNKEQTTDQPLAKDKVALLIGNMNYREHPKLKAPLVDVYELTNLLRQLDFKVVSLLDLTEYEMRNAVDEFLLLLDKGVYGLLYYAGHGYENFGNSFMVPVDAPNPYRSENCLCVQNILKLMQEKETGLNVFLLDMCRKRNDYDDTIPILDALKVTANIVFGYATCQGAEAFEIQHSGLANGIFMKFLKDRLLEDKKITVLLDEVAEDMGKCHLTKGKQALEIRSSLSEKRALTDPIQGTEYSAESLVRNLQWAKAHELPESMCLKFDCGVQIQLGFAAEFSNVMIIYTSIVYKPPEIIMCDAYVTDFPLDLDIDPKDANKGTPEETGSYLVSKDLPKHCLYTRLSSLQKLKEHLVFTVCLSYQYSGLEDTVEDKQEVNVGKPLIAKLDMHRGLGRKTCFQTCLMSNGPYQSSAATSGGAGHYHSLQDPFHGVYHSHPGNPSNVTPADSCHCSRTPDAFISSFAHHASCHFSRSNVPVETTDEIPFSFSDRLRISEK

Chain of MALT1-GS-Ub (6-His-hMALT-1 residues 339-715 fused to ubiquitin) (Q9UDY8 with tags, fused parts or gaps limits assumed): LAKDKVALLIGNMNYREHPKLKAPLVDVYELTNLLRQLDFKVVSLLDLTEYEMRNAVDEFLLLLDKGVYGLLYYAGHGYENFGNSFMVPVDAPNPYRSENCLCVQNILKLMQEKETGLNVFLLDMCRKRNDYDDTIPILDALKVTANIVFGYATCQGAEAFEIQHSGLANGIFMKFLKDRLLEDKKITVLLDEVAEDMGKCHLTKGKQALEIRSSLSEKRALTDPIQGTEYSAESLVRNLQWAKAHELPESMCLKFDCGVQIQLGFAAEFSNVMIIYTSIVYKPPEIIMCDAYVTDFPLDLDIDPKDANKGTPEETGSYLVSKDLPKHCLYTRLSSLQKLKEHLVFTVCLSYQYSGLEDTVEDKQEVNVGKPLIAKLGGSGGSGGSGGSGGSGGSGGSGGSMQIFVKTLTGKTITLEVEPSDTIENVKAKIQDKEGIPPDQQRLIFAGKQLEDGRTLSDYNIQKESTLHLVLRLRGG

Row | IC50 ([1]; 48 hours) [nM] | IC50 [2] [nM] | IC50 [3] [nM] | IC50 ([1]; Homo sapiens, Jurkat, 48 h) [nM] | Compound
1 | 120 | 190 | 15 | – | CN(C(=O)C1CN(S(C)(=O)=O)C1)[C@@H](c1ccc(NC2Cc3ccccc3C2(C)C)cc1)C(F)(F)F (single isomer, unassigned) [Example 68]
2 | 920 | 280 | 79 | – | CN(C(=O)C1CN(S(C)(=O)=O)C1)[C@@H](c1ccc(NC2Cc3ccccc3C2(C)C)cc1)C(F)(F)F (single isomer, unassigned) [Example 69]
3 | – | 430 | 810 | 3500 | CN(C(=O)C1CCNCC1)[C@@H](c1ccc(NC2Cc3ccccc3C2)cc1)C(F)(F)F (single isomer, unassigned) [Example 70]
4 | 370 | 420 | 7 | – | CNC(=O)N1CC(C(=O)N(C)[C@@H](c2ccc(NC3Cc4ccccc4C3(C)C)cc2)C(F)(F)F)C1 (single isomer, unassigned) [Example 73]
5 | 180 | 320 | 18 | – | CNC(=O)N1CC(C(=O)N(C)[C@@H](c2ccc(NC3Cc4ccccc4C3(C)C)cc2)C(F)(F)F)C1 (single isomer, unassigned) [Example 74]
6 | – | 250 | 370 | 820 | CN1CC(C(=O)N(C)[C@@H](c2ccc(NC3Cc4ccccc4C3(C)C)cc2)C(F)(F)F)C1 (single isomer, unassigned) [Example 75]
7 | 500 | 220 | 36 | – | CN1CC(C(=O)N(C)[C@@H](c2ccc(NC3Cc4ccccc4C3(C)C)cc2)C(F)(F)F)C1 (single isomer, unassigned) [Example 76]
8 | 920 | 310 | 68 | – | CN(C(=O)C1CCS(=O)(=O)CC1)[C@@H](c1ccc(NC2Cc3ccccc3C2(C)C)cn1)C(F)(F)F (single isomer, unassigned) [Example 77]
9 | 156 | 280 | 18 | – | CN(C(=O)C1CCS(=O)(=O)CC1)[C@@H](c1ccc(NC2Cc3ccccc3C2(C)C)cn1)C(F)(F)F (single isomer, unassigned) [Example 78]
10 | – | 610 | 730 | 4310 | CN([C@@H](c1ccc(NC2Cc3ccccc3C2(C)C)cc1)C(F)(F)F)S(=O)(=O)C1CC1 (single isomer, unassigned) [Example 79]
11 | 2240 | 270 | 210 | – | CN([C@@H](c1ccc(NC2Cc3ccccc3C2(C)C)cc1)C(F)(F)F)S(=O)(=O)C1CC1 (single isomer, unassigned) [Example 80]
12 | – | 1440 | 800 | 3860 | CC1(C)c2ccccc2CC1Nc1ccc([C@H](NC(=O)C2CCS(=O)(=O)CC2)C(F)(F)F)cc1 (single isomer, unassigned) [Example 81]
13 | 2990 | 470 | 460 | – | CC1(C)c2ccccc2CC1Nc1ccc([C@H](NC(=O)C2CCS(=O)(=O)CC2)C(F)(F)F)cc1 (single isomer, unassigned) [Example 82]
14 | 640 | 320 | 180 | – | CN(C(=O)C1CNC1)C(c1ccc(NC2Cc3ccccc3C2(C)C)cn1)C(F)(F)F (single isomer, unassigned) [Example 84, N-(1-(5-((1,1-Dimethyl-2,3-dihydro-1H-inden-2-yl)amino)pyridin-2-yl)-2,2,2-trifluoroethyl)-N-methylazetidine-3-carboxamide]
15 | 1940 | 610 | 620 | – | CN(C(=O)C1CNC1)C(c1ccc(NC2Cc3ccccc3C2(C)C)cn1)C(F)(F)F (single isomer, unassigned) [Example 85, N-(1-(5-((1,1-Dimethyl-2,3-dihydro-1H-inden-2-yl)amino)pyridin-2-yl)-2,2,2-trifluoroethyl)-N-methylazetidine-3-carboxamide]
16 | – | 1220 | 470 | 1130 | CN(C(=O)C1CNC1)C(c1ccc(NC2Cc3ccccc3C2(C)C)nc1)C(F)(F)F (single isomer, unassigned) [Example 87, N-(1-(6-((1,1-Dimethyl-2,3-dihydro-1H-inden-2-yl)amino)pyridin-3-yl)-2,2,2-trifluoroethyl)-N-methylazetidine-3-carboxamide]
17 | 1710 | 650 | 370 | – | CN(C(=O)C1CNC1)C(c1ccc(NC2Cc3ccccc3C2(C)C)nc1)C(F)(F)F (single isomer, unassigned) [Example 88, N-(1-(6-((1,1-Dimethyl-2,3-dihydro-1H-inden-2-yl)amino)pyridin-3-yl)-2,2,2-trifluoroethyl)-N-methylazetidine-3-carboxamide]
18 | – | 500 | 280 | 870 | CN1CC(C(=O)N(C)C(c2ccc(NC3Cc4ccccc4C3(C)C)cn2)C(F)(F)F)C1 (single isomer, unassigned) [Example 92, N-(1-(5-((1,1-Dimethyl-2,3-dihydro-1H-inden-2-yl)amino)pyridin-2-yl)-2,2,2-trifluoroethyl)-N,1-dimethylazetidine-3-carboxamide]
19 | 3040 | 1000 | 690 | – | CN1CC(C(=O)N(C)C(c2ccc(NC3Cc4ccccc4C3(C)C)nc2)C(F)(F)F)C1 (single isomer, unassigned) [Example 93, N-(1-(6-((1,1-Dimethyl-2,3-dihydro-1H-inden-2-yl)amino)pyridin-3-yl)-2,2,2-trifluoroethyl)-N,1-dimethylazetidine-3-carboxamide]
20 | 1300 | 580 | 640 | – | CN1CC(C(=O)N(C)C(c2ccc(NC3Cc4ccccc4C3(C)C)nc2)C(F)(F)F)C1 (single isomer, unassigned) [Example 95, N-(1-(6-((1,1-Dimethyl-2,3-dihydro-1H-inden-2-yl)amino)pyridin-3-yl)-2,2,2-trifluoroethyl)-N,1-dimethylazetidine-3-carboxamide]
21 | – | 140 | 130 | 1560 | CN(C(=O)c1cc[nH]c(=O)c1)C(c1ccc(NC2Cc3ccccc3C2(C)C)cn1)C(F)(F)F (single isomer, unassigned) [Example 96, N-(1-(5-((1,1-Dimethyl-2,3-dihydro-1H-inden-2-yl)amino)pyridin-2-yl)-2,2,2-trifluoroethyl)-N-methyl-2-oxo-1,2-dihydropyridine-4-carboxamide]
22 | 880 | 210 | 590 | – | CN(C(=O)c1cc[nH]c(=O)c1)C(c1ccc(NC2Cc3ccccc3C2(C)C)cn1)C(F)(F)F (single isomer, unassigned) [Example 98, N-(1-(5-((1,1-Dimethyl-2,3-dihydro-1H-inden-2-yl)amino)pyridin-2-yl)-2,2,2-trifluoroethyl)-N-methyl-2-oxo-1,2-dihydropyridine-4-carboxamide]
23 | – | 150 | 66 | 100 | CN(C(=O)C1CCS(=O)(=O)CC1)[C@@H](c1ccc(NC2Cc3ccc(Cl)cc3C2(C)C)cc1)C(F)(F)F (single isomer, unassigned) [Example 150]
24 | 97 | 120 | 4 | – | CN(C(=O)C1CCS(=O)(=O)CC1)[C@@H](c1ccc(NC2Cc3ccc(Cl)cc3C2(C)C)cc1)C(F)(F)F (single isomer, unassigned) [Example 151]
